Source: publication PMC11740379, “Novel Enyne-Modified 1,4-Thiazepines as Epidermal Growth Factor Receptor Inhibitors: Anticancer and Computational Studies” (ACS Omega, 2024)
Read-outs that look alike come from different tables or passages of the source.

Legend:
Format in all cases: cell-based, human
HEK-293 cells = assay: XTT cytotoxicity assay, non-tumorigenic cells; details: XTT assay, exposure time of the IC50 not stated (24, 48, 72 h tested)
Method: Human cell lines for breast cancer (MCF-7), lung cancer (A549), prostate cancer (PC-3), and nontumorigenic HEK-293 were sourced from the Health Protection Agency (U.K.) and the Interlab Cell Line Collection (Italy). The cells were cultured in RPMI medium (Sigma) supplemented with 10% heat-inactivated fetal bovine serum, 1% penicillin, and 1% L-glutamine, and incubated in a humidified CO2 atmosphere at 37 °C.
To evaluate the cytotoxic effects of TZEPs, which were dissolved in dimethyl sulfoxide (DMSO), the XTT assay (2,3-bis(2-methoxy-4-nitro-5-sulfophenyl)-2H-tetrazolium-5-carboxanilide) was employed. Cells were plated in 96-well plates at a density of 10^4 cells per well and exposed to varying concentrations of TZEPs (ranging from 1 to 250 μM) for 24, 48, and 72 h. Following the incubation, 100 μL of XTT was added to each well, and the plates were incubated for an additional 4 h at 37 °C. The resulting color change was measured by recording the absorbance at 570 nm using a microplate reader (Tecan).
The IC50 values, which indicate the concentration of the compound required to inhibit 50% of cancer cell proliferation, were determined using Biosoft CalcuSyn 2.1 software. […] Conversely, an SI less than 1 means the drug is more toxic to normal cells than to target cells, which is undesirable in therapeutic contexts. In the literature, a selectivity index of 2 or higher is generally considered significant, implying that the compound selectively targets diseased cells with relatively low toxicity to healthy cells.[15]

MCF-7 cells [1] = assay: XTT cytotoxicity assay, breast cancer cells; details: for IC50: read-out: IC50, breast cancer (MCF-7); for Selectivity index (SI), breast cancer (MCF-7): versus normal cells HEK-293
Method: (§1) The cells were cultured in RPMI medium (Sigma) supplemented with 10% heat-inactivated fetal bovine serum, 1% penicillin, and 1% L-glutamine, and incubated in a humidified CO2 atmosphere at 37 °C.
(§2) To evaluate the cytotoxic effects of TZEPs, which were dissolved in dimethyl sulfoxide (DMSO), the XTT assay (2,3-bis(2-methoxy-4-nitro-5-sulfophenyl)-2H-tetrazolium-5-carboxanilide) was employed. […] Following the incubation, 100 μL of XTT was added to each well, and the plates were incubated for an additional 4 h at 37 °C. The resulting color change was measured by recording the absorbance at 570 nm using a microplate reader (Tecan).
(§3) Conversely, an SI less than 1 means the drug is more toxic to normal cells than to target cells, which is undesirable in therapeutic contexts.

A549 cells [2] = assay: XTT cytotoxicity assay, lung cancer cells; details: for IC50: read-out: IC50, lung cancer (A549); for Selectivity index (SI), lung cancer (A549): versus normal cells HEK-293
Method: as §1, §2, §3

PC-3 cells [3] = assay: XTT cytotoxicity assay, prostate cancer cells; details: for IC50: read-out: IC50, prostate cancer (PC-3); for Selectivity index (SI), prostate cancer (PC-3): versus normal cells HEK-293
Method: as §1, §2, §3

A549 cells [4] = assay: Annexin V-FITC/PI apoptosis detection by flow cytometry; details: A549, IC50 concentration, 72 h
Excerpt: (§4) Annexin V, a protein with a high affinity for phosphatidylserine (PS), is pivotal in detecting apoptosis. Normally, PS is located in the inner leaflet of the plasma membrane, but during apoptosis, it moves to the outer leaflet, making it a key marker for apoptotic cells.[16] Annexin V binds specifically to PS on the surface of these cells. A secondary dye like propidium iodide (PI) is used to distinguish apoptotic cells from viable ones with intact membranes. We can identify and quantify viable cells (annexin V–, PI–) and apoptotic cells (annexin V+, PI+) by analyzing fluorescence patterns. Here, we employed the FITC Annexin V Apoptosis Detection Kit I from BD Pharmingen. Cells were seeded at a density of 10^6 cells per well in a 6-well plate and exposed to IC50 concentration of TZEP7 for 72 h. Following treatment, cells were rinsed with cold PBS, resuspended in 1 mL of 1× Binding Buffer, and stained with 5 μL of Annexin V FITC and 5 μL of PI. After vortexing, the samples were incubated at room temperature (25 °C) for 15 min in the dark. Postincubation, 400 μL of 1× Binding Buffer was added to each sample, and apoptosis was measured using a BD Accuri C6 Flow Cytometer. Cisplatin was used as an apoptosis-inducing reference drug.

MCF-7 cells [5] = assay: as above; details: MCF-7, IC50 concentration, 72 h
Excerpt: as §4

PC-3 cells [6] = assay: as above; details: PC-3, IC50 concentration, 72 h
Excerpt: as §4

[7] = Homo sapiens, MCF7, XTT assay, exposure time of the IC50 not stated (24, 48, 72 h tested)
[8] = Homo sapiens, A549, XTT assay, exposure time of the IC50 not stated (24, 48, 72 h tested)
[9] = Homo sapiens, PC-3, XTT assay, exposure time of the IC50 not stated (24, 48, 72 h tested)
[10] = XTT assay, exposure time of the IC50 not stated (24, 48, 72 h tested)

Row | Structure (SMILES) | IC50 (HEK-293 cells; Homo sapiens, HEK293) [µM] | IC50 (MCF-7 cells [1]; [7]) [µM] | Selectivity index (SI), breast cancer (MCF-7) (MCF-7 cells [1]) | IC50 (A549 cells [2]; [8]) [µM] | Selectivity index (SI), lung cancer (A549) (A549 cells [2]) | IC50 (PC-3 cells [3]; [9]) [µM] | Selectivity index (SI), prostate cancer (PC-3) (PC-3 cells [3]) | IC50 (HEK-293 cells) [µM] | IC50 (MCF-7 cells [1]; [10]) [µM] | IC50 (A549 cells [2]; [10]) [µM] | IC50 (PC-3 cells [3]; [10]) [µM] | cells in early apoptosis (A549 cells [4]) [%] | cells in late apoptosis (A549 cells [4]) [%] | cells in early apoptosis (MCF-7 cells [5]) [%] | cells in late apoptosis (MCF-7 cells [5]) [%] | cells in early apoptosis (PC-3 cells [6]) [%] | cells in late apoptosis (PC-3 cells [6]) [%] | IC50 (MCF-7 cells [1]; Homo sapiens, MCF7, 72 h) [µM] | IC50 (A549 cells [2]; Homo sapiens, A549, 72 h) [µM] | IC50 (PC-3 cells [3]; Homo sapiens, PC-3, 72 h) [µM]
1 | C(#Cc1ccccc1)/C=C1/CN=C(c2ccccc2)C=C(c2ccccc2)S1 [TZEP1] | 29.5 ± 0.8 | 69.4 ± 1.2 | 0.42 | 38.7 ± 3.2 | 0.76 | 12.4 ± 3.2 | 2.37 | – | – | – | – | – | – | – | – | – | – | – | – | –
2 | Fc1cccc(C2=NC/C(=C/C#Cc3ccccc3)SC(c3ccccc3)=C2)c1 [TZEP2] | 45.7 ± 2.7 | 66.4 ± 1.8 | 0.68 | 61.4 ± 1.6 | 0.74 | 57.7 ± 1.4 | 0.79 | – | – | – | – | – | – | – | – | – | – | – | – | –
3 | Brc1ccc(C2=NC/C(=C/C#Cc3ccccc3)SC(c3ccccc3)=C2)cc1 [TZEP3] | 35.5 ± 1.3 | 13.3 ± 1 | 2.66 | 60.3 ± 0.8 | 0.58 | 71.2 ± 0.9 | 0.49 | – | – | – | – | – | – | – | – | – | – | – | – | –
4 | Clc1ccc(C2=CC(c3ccccc3)=NC/C(=C/C#Cc3ccccc3)S2)cc1 [TZEP4] | 47.3 ± 0.7 | 81.2 ± 4.4 | 0.58 | 71.1 ± 2.6 | 0.66 | 73.5 ± 2.2 | 0.64 | – | – | – | – | – | – | – | – | – | – | – | – | –
5 | Brc1ccccc1C1=CC(c2ccccc2)=NC/C(=C/C#Cc2ccccc2)S1 [TZEP5] | 20.4 ± 1.4 | 22.3 ± 1.8 | 0.91 | 45.8 ± 0.9 | 0.44 | 54.9 ± 3.2 | 0.37 | – | – | – | – | – | – | – | – | – | – | – | – | –
6 | Clc1ccc(C2=NC/C(=C/C#Cc3ccccc3)SC(c3ccccc3Br)=C2)cc1 [TZEP6] | 10.9 ± 3.4 | 15.5 ± 2.8 | 0.70 | 14.2 ± 2.2 | 0.76 | 12.4 ± 3.6 | 0.87 | – | – | – | – | – | – | – | – | – | – | – | – | –
7 | C(#Cc1ccccc1)/C=C1/CN=C(c2ccsc2)C=C(c2ccccc2)S1 [TZEP8] | 99.2 ± 3 | 85.7 ± 2.4 | 1.15 | 112.8 ± 0.8 | 0.87 | 95.4 ± 1.2 | 1.03 | – | – | – | – | – | – | – | – | – | – | – | – | –
8 | Cc1ccc(C2=NC/C(=C/C#Cc3ccccc3)SC(c3ccccc3)=C2)cc1 [TZEP9] | 98.8 ± 0.7 | 78.4 ± 1.8 | 1.26 | 96.6 ± 1.4 | 1.02 | 103 ± 2 | 0.96 | – | – | – | – | – | – | – | – | – | – | – | – | –
9 | CC(C)(C)c1ccc(C2=NC/C(=C/C#Cc3ccccc3)SC(c3ccccc3)=C2)cc1 [TZEP10] | 89 ± 0.5 | 76.3 ± 0.8 | 1.16 | 64.4 ± 1.8 | 1.38 | 73.7 ± 3.2 | 1.20 | – | – | – | – | – | – | – | – | – | – | – | – | –
10 | COc1ccc(C2=NC/C(=C/C#Cc3ccccc3)SC(c3ccccc3)=C2)cc1 [TZEP11] | 112 ± 3 | 98.2 ± 2.8 | 1.14 | 108 ± 2.6 | 1.04 | 81.6 ± 3.4 | 1.37 | – | – | – | – | – | – | – | – | – | – | – | – | –
11 | Cc1ccc(C#C/C=C2/CN=C(c3ccccc3)C=C(c3ccccc3)S2)cc1 [TZEP12] | 110 ± 1.2 | 92.6 ± 1 | 1.19 | 90.5 ± 0.7 | 1.21 | 101 ± 3 | 1.09 | – | – | – | – | – | – | – | – | – | – | – | – | –
12 | N.N.[Cl][Pt][Cl] [cisplatin, Cisplatin, reference compound] | – | – | 1.02 | – | 1.11 | – | 1.17 | 15 ± 0.7 | 14.7 ± 0.6 | 13.4 ± 1.4 | 12.8 ± 2.8 | 13.4 | 70.8 | 18.7 | 72.2 | 16.2 | 75.4 | – | – | –
13 | C#Cc1cccc(Nc2ncnc3cc(OCCOC)c(OCCOC)cc23)c1 [erlotinib, Erlotinib, reference compound] | 12.9 ± 3 | – | – | – | – | – | – | – | – | – | – | – | – | – | – | – | – | 13.4 ± 2 | 18.4 ± 0.4 | 15.5 ± 30.8
